Test results: publication PMC8343220, “The selectivity of α‐adrenoceptor agonists for the human α1A, α1B, and α1D‐adrenoceptors” (Pharmacology Research & Perspectives, 2021)

Legend:
human α1A‐adrenoceptor [1] = target: T1, human α1A‐adrenoceptor (Homo sapiens, UniProt P35348); test: ^3H‐prazosin whole‐cell radioligand binding, CHO‐α1A cells; details: Log KD α1A, ^3H‐prazosin whole cell binding, CHO‐α1A cells; given as log KD (negative); mean ± SEM
T1 construct: expressed in transfected cells; host or cells: CHO-K1
T1 sequence (P35348 1-466): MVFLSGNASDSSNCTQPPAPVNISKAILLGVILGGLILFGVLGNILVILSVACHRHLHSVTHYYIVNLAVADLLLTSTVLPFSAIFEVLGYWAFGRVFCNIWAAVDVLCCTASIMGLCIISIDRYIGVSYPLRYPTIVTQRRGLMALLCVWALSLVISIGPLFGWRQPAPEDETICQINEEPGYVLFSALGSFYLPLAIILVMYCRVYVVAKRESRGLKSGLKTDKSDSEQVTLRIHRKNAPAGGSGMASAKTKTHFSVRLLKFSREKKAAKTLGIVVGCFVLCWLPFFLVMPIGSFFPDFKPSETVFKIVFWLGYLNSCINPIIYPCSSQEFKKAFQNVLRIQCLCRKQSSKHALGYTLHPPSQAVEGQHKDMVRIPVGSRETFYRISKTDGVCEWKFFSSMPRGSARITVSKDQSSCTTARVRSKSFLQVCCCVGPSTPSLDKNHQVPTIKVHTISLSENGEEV

[2] = target: T2, human α1D‐adrenoceptor (full length) (Homo sapiens, UniProt P25100); test: ^3H‐cAMP accumulation in the presence of 10 μM forskolin, CHO‐α1D cells; assay type: cell-based; details: CHO‐α1D cells; in presence of forskolin; log values given negative
T2 construct: human α1D‐adrenoceptor (full length) were used; expressed in transfected cells; host or cells: CHO-K1
T2 sequence (P25100 1-572): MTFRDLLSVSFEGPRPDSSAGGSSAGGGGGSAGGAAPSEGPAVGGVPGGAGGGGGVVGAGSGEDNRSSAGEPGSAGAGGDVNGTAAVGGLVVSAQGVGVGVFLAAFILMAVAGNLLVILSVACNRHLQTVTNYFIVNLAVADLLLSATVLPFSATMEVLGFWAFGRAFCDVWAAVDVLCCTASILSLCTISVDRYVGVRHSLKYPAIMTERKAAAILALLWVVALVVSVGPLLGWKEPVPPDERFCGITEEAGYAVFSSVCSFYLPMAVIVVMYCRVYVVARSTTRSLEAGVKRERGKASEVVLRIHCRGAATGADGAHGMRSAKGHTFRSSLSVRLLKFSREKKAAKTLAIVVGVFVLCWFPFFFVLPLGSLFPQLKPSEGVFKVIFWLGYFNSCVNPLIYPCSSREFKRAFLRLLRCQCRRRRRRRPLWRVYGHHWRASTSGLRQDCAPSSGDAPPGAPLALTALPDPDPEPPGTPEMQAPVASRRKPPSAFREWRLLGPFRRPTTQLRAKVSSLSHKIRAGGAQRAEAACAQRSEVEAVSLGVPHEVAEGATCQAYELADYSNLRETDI

[3] = system: parental CHO cell line without any transfected receptors; test: ERK1/2‐phosphorylation, parent CHO cells without transfected receptors; assay type: cell-based, Chinese hamster; details: Cricetulus griseus, CHO; read-out: ERK1/2-phosphorylation % PDBu at 100μM
human α1A‐adrenoceptor [4] = target: T1, human α1A‐adrenoceptor; test: Intracellular free calcium mobilization, CHO‐α1A cells; assay type: cell-based
[5] = system: parental CHO cell line without any transfected receptors; test: Intracellular calcium mobilization, parent CHO cells without transfected receptors; assay type: cell-based, Chinese hamster; details: Cricetulus griseus; CHO cells without transfected receptors; response at maximum concentration used (c2), as % of ionomycin (10μM) response; mean ± s.e.m.; read-out: Intracellular calcium release % ionomycin
[6] = target: T2, human α1D‐adrenoceptor (full length); test: ERK1/2‐phosphorylation (Surefire Alphascreen), CHO‐α1D cells; assay type: cell-based
[7] = target: T2, human α1D‐adrenoceptor (full length); test: ^3H‐cAMP accumulation, CHO‐α1D cells; assay type: cell-based; details: cAMP accumulation without forskolin
human α1A‐adrenoceptor [8] = target: T1, human α1A‐adrenoceptor; test: ^3H‐cAMP accumulation, CHO‐α1A cells; assay type: cell-based; details: CHO‐α1A cells
[9] = system: parental CHO cell line without any transfected receptors; test: Forskolin‐stimulated cAMP accumulation, parent CHO cells without transfected receptors; assay type: cell-based, Chinese hamster; details: CHO cells without transfected receptors; in presence of forskolin
human α1A‐adrenoceptor [10] = target: T1, human α1A‐adrenoceptor; test: ^3H‐cAMP accumulation in the presence of 10 μM forskolin, CHO‐α1A cells; assay type: cell-based; details: CHO‐α1A cells; 10 μM forskolin; read-out: cAMP accumulation (in presence of forskolin) Log EC50 (converted)
human α1A‐adrenoceptor [11] = target: T1, human α1A‐adrenoceptor; test: ERK1/2‐phosphorylation (Surefire Alphascreen), CHO‐α1A cells; assay type: cell-based
[12] = target: T2, human α1D‐adrenoceptor (full length); test: ^3H‐prazosin whole‐cell radioligand binding, CHO‐α1D cells; details: CHO‐α1D cells
[13] = target: T2, human α1D‐adrenoceptor (full length); test: Intracellular free calcium mobilization, CHO‐α1D cells; assay type: cell-based

N=C(N)N/N=C/c1c(Cl)cccc1Cl [Guanabenz]
Kd (human α1A‐adrenoceptor [1]): 0.331 µM | cAMP (in presence of forskolin) Log EC50 [2]: No response | Emax at 100 µM [3]: 8.5 ± 3.1% | Intracellular calcium release % ionomycin (human α1A‐adrenoceptor [4]): 17.8 ± 3.2% | EC50 (human α1A‐adrenoceptor [4]; CHO‐α1A cells, given as log EC50 (negative), read-out: Intracellular calcium release Log EC50 (converted)): 0.11 µM | Emax [5]: 23.5 ± 7.4% | ERK1/2‐phosphorylation % PDBu at 100 µM [6]: 20.8 ± 6.6% | cAMP Log EC50 [7]: No response | EC50 (human α1A‐adrenoceptor [8]; 5 h, read-out: cAMP accumulation Log EC50 (converted)): 1.82 µM | cAMP accumulation % forskolin (human α1A‐adrenoceptor [8]; % of 10 µM forskolin response): 2.1 ± 0.3% | cAMP accumulation (in presence of forskolin) Log EC50 [9]: No response | EC50 (human α1A‐adrenoceptor [10]): 0.145 µM | ERK1/2‐phosphorylation % PDBu (human α1A‐adrenoceptor [11]): 68.4 ± 8.6% | EC50 (human α1A‐adrenoceptor [11]; CHO‐α1A cells, 2–4 min, ^a bi‐phasic: initial stimulatory part, ^b also active in parent CHO cells, read-out: ERK1/2‐phosphorylation Log EC50 (converted)): 0.204 µM | Kd ([12]; 3H‐prazosin binding Log KD, whole‐cell binding (from Table 1), log values given negative): 0.955 µM | Kd ([12]; Log KD α1D, ^3H‐prazosin whole cell binding, given as log KD (negative), mean ± SEM, 'early plateau' = specific binding not fully inhibited): 0.955 µM | Intracellular calcium release % Ionomycin at 100 µM [13]: 20.2 ± 5.1%
